System: desired test plant species
Experiment: Foliar-applied postemergence herbicidal activity in direct seeded rice (Table 6)
Format: in vivo
Details: 21 DAA
From the text: Seeds or nutlets of the desired test plant species were planted in a soil matrix prepared by mixing a loam soil (43 percent silt, 19 percent clay, and 38 percent sand, with a pH of about 8.1 and an organic matter content of about 1.5 percent) and river sand in an 80 to 20 ratio. The soil matrix was contained in plastic pots with a surface area of 139.7 cm^2. When required to ensure good germination and healthy plants, a fungicide treatment and/or other chemical or physical treatment was applied. The plants were grown for 10-17 d in a greenhouse with an approximate 14-h photoperiod which was maintained at about 29° C. during the day and 26° C. during the night. Nutrients and water were added on a regular basis and supplemental lighting was provided with overhead metal halide 1000-Watt lamps as necessary. The plants were employed for testing when they reached the second or third true leaf stage. Treatments consisted of compounds 45, 34, and 66. Weighed amounts of technical compounds were placed in individual 25 mL glass vials and dissolved in 8 mL of 97:3 v/v acetone-DMSO to obtain stock solutions. […] The spray application solutions were prepared by removing 4 mL of the stock solution and diluting with 4 mL of 97:3 v/v acetone-DMSO and continued serial dilution to obtain 1⁄2×, 1⁄4×, 1⁄8×, and 1/16× rates of the high rate. Spray solutions were diluted to the appropriate final concentrations with the addition of 8 mL of an aqueous mixture of 1.875% (v/v) Agri-dex crop oil concentrate. The final 12-mL spray solutions each contained 1.25% (v/v) Agri-dex crop oil concentrate, 32.3% acetone, and 1.0% DMSO. Compound requirements are based upon a 12 mL application volume at a rate of 187 L/ha. Spray solutions were applied to the plant material with an overhead Mandel track sprayer equipped with […] nozzles calibrated to deliver 187 L/ha over an application area of 0.503 square meters (m^2) at a spray height of 18 inches ([…]) above average plant canopy height. Control plants were sprayed in the same manner with the solvent blank. The treated plants and control plants were placed in a greenhouse as described above and watered by sub-irrigation to prevent wash-off of the test compounds. After approximately 3 weeks, the condition of the test plants, compared with that of the untreated plants, was determined visually and scored on a scale of 0 to 100 percent where 0 corresponds to no injury and 100 corresponds to complete kill. By applying the well-accepted probit analysis as described by J. Berkson in Journal of the […], 48, 565 (1953) and by D. Finney in “Probit Analysis” Cambridge University Press (1952) or by plotting the mean data and fitting a logarithmic curve to the portion of the data where there was a dose response using Microsoft Excel®, the above data can be used to calculate GR50 and GR90 values, which are defined as growth reduction factors that correspond to the effective dose of herbicide required to kill or control 50 percent or 90 percent, respectively, of a target plant.

## COc1c(C(=O)OCc2ccccc2)nc(-c2ccc(Cl)c(OC)c2F)c(F)c1N [Compound 66, benzyl 4-amino-6-(4-chloro-2-fluoro-3-methoxyphenyl)-5-fluoro-3-methoxypicolinate]
AESSE (Aeschynomene sensitiva, sensitive jointvetch), 4.38 g ae/ha
  Mean Visual Injury (%)-21 Days After Application AESSE: 100%
AESSE (Aeschynomene sensitiva, sensitive jointvetch), 8.75 g ae/ha
  Mean Visual Injury (%)-21 Days After Application AESSE: 100%
AESSE (Aeschynomene sensitiva, sensitive jointvetch), 17.5 g ae/ha
  Mean Visual Injury (%)-21 Days After Application AESSE: 100%
AESSE (Aeschynomene sensitiva, sensitive jointvetch), 35 g ae/ha
  Mean Visual Injury (%)-21 Days After Application AESSE: 100%
AESSE (Aeschynomene sensitiva, sensitive jointvetch), 70 g ae/ha
  Mean Visual Injury (%)-21 Days After Application AESSE: 100%
AESSE (Aeschynomene sensitiva, sensitive jointvetch), dose to kill or control 50 percent
  GR50 AESSE: <4.38 g ae/ha
AESSE (Aeschynomene sensitiva, sensitive jointvetch), dose to kill or control 90 percent
  GR90 AESSE: <4.38 g ae/ha
BRAPP (Brachiaria platyphylla, broadleaf signalgrass), 2.19 g ae/ha
  Mean Visual Injury (%)-21 Days After Application BRAPP: 53%
BRAPP (Brachiaria platyphylla, broadleaf signalgrass), 4.38 g ae/ha
  Mean Visual Injury (%)-21 Days After Application BRAPP: 72%
BRAPP (Brachiaria platyphylla, broadleaf signalgrass), 8.75 g ae/ha
  Mean Visual Injury (%)-21 Days After Application BRAPP: 83%
BRAPP (Brachiaria platyphylla, broadleaf signalgrass), 17.5 g ae/ha
  Mean Visual Injury (%)-21 Days After Application BRAPP: 90%
BRAPP (Brachiaria platyphylla, broadleaf signalgrass), 35 g ae/ha
  Mean Visual Injury (%)-21 Days After Application BRAPP: 87%
BRAPP (Brachiaria platyphylla, broadleaf signalgrass), 70 g ae/ha
  Mean Visual Injury (%)-21 Days After Application BRAPP: 93%
BRAPP (Brachiaria platyphylla, broadleaf signalgrass), dose to kill or control 50 percent
  GR50 BRAPP: <2.19 g ae/ha
BRAPP (Brachiaria platyphylla, broadleaf signalgrass), dose to kill or control 90 percent
  GR90 BRAPP: 34.4 g ae/ha
CYPDI (Cyperus difformis, small-flower flatsedge), 2.19 g ae/ha
  Mean Visual Injury (%)-21 Days After Application CYPDI: 70%
CYPDI (Cyperus difformis, small-flower flatsedge), 4.38 g ae/ha
  Mean Visual Injury (%)-21 Days After Application CYPDI: 91%
CYPDI (Cyperus difformis, small-flower flatsedge), 8.75 g ae/ha
  Mean Visual Injury (%)-21 Days After Application CYPDI: 96%
CYPDI (Cyperus difformis, small-flower flatsedge), 17.5 g ae/ha
  Mean Visual Injury (%)-21 Days After Application CYPDI: 100%
CYPDI (Cyperus difformis, small-flower flatsedge), 35 g ae/ha
  Mean Visual Injury (%)-21 Days After Application CYPDI: 99%
CYPDI (Cyperus difformis, small-flower flatsedge), 70 g ae/ha
  Mean Visual Injury (%)-21 Days After Application CYPDI: 97%
CYPDI (Cyperus difformis, small-flower flatsedge), dose to kill or control 50 percent
  GR50 CYPDI: <2.19 g ae/ha
CYPDI (Cyperus difformis, small-flower flatsedge), dose to kill or control 90 percent
  GR90 CYPDI: 6.6 g ae/ha
CYPES (Cyperus esculentus, yellow nutsedge), 2.19 g ae/ha
  Mean Visual Injury (%)-21 Days After Application CYPES: 60%
CYPES (Cyperus esculentus, yellow nutsedge), 4.38 g ae/ha
  Mean Visual Injury (%)-21 Days After Application CYPES: 67%
CYPES (Cyperus esculentus, yellow nutsedge), 8.75 g ae/ha
  Mean Visual Injury (%)-21 Days After Application CYPES: 93%
CYPES (Cyperus esculentus, yellow nutsedge), 35 g ae/ha
  Mean Visual Injury (%)-21 Days After Application CYPES: 94%
CYPES (Cyperus esculentus, yellow nutsedge), 70 g ae/ha
  Mean Visual Injury (%)-21 Days After Application CYPES: 95%
CYPES (Cyperus esculentus, yellow nutsedge), dose to kill or control 50 percent
  GR50 CYPES: <2.19 g ae/ha
CYPES (Cyperus esculentus, yellow nutsedge), dose to kill or control 90 percent
  GR90 CYPES: 13.1 g ae/ha
CYPIR (Cyperus iria, rice flatsedge), 2.19 g ae/ha
  Mean Visual Injury (%)-21 Days After Application CYPIR: 43%
CYPIR (Cyperus iria, rice flatsedge), 4.38 g ae/ha
  Mean Visual Injury (%)-21 Days After Application CYPIR: 81%
CYPIR (Cyperus iria, rice flatsedge), 8.75 g ae/ha
  Mean Visual Injury (%)-21 Days After Application CYPIR: 99%
CYPIR (Cyperus iria, rice flatsedge), 17.5 g ae/ha
  Mean Visual Injury (%)-21 Days After Application CYPIR: 100%
CYPIR (Cyperus iria, rice flatsedge), 35 g ae/ha
  Mean Visual Injury (%)-21 Days After Application CYPIR: 100%
CYPIR (Cyperus iria, rice flatsedge), 70 g ae/ha
  Mean Visual Injury (%)-21 Days After Application CYPIR: 99%
CYPIR (Cyperus iria, rice flatsedge), dose to kill or control 50 percent
  GR50 CYPIR: 2.4 g ae/ha
CYPIR (Cyperus iria, rice flatsedge), dose to kill or control 90 percent
  GR90 CYPIR: 6.4 g ae/ha
ECHCG (Echinochloa crus-galli, barnyardgrass), 2.19 g ae/ha
  Mean Visual Injury (%)-21 Days After Application ECHCG: 78%
ECHCG (Echinochloa crus-galli, barnyardgrass), 4.38 g ae/ha
  Mean Visual Injury (%)-21 Days After Application ECHCG: 86%
ECHCG (Echinochloa crus-galli, barnyardgrass), 8.75 g ae/ha
  Mean Visual Injury (%)-21 Days After Application ECHCG: 95%
ECHCG (Echinochloa crus-galli, barnyardgrass), 17.5 g ae/ha
  Mean Visual Injury (%)-21 Days After Application ECHCG: 96%
ECHCG (Echinochloa crus-galli, barnyardgrass), 35 g ae/ha
  Mean Visual Injury (%)-21 Days After Application ECHCG: 97%
ECHCG (Echinochloa crus-galli, barnyardgrass), 70 g ae/ha
  Mean Visual Injury (%)-21 Days After Application ECHCG: 95%
ECHCG (Echinochloa crus-galli, barnyardgrass), dose to kill or control 50 percent
  GR50 ECHCG: <42.19 g ae/ha
ECHCG (Echinochloa crus-galli, barnyardgrass), dose to kill or control 90 percent
  GR90 ECHCG: 8.3 g ae/ha
ECHCO (Echinochloa colonum, junglerice), 2.19 g ae/ha
  Mean Visual Injury (%)-21 Days After Application ECHCO: 62%
